Measured values taken from patent US12479856B2, “Pharmaceutical compounds for the treatment of complement mediated disorders” (Achillion Pharmaceuticals, Inc., priority 2019, dated 2025).
Where two headings read alike, the source gives them in different places.

Molecular target: T1, Human complement C1s enzyme (Homo sapiens, UniProt P09871)
T1 construct: purified from human serum, Complement Technology, Inc; purchased Complement Technology, Inc; host or cells: human serum (plasma-derived natural protein)
T1 sequence (P09871 438-688 limits assumed): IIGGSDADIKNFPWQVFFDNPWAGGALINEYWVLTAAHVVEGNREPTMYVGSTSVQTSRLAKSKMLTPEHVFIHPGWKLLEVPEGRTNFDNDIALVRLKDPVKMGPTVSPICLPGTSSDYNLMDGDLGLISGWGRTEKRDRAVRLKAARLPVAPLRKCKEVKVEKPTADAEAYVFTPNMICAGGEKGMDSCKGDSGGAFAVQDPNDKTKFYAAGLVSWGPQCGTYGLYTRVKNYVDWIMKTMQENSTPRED
T1 sequence (P09871 16-437 partner limits assumed): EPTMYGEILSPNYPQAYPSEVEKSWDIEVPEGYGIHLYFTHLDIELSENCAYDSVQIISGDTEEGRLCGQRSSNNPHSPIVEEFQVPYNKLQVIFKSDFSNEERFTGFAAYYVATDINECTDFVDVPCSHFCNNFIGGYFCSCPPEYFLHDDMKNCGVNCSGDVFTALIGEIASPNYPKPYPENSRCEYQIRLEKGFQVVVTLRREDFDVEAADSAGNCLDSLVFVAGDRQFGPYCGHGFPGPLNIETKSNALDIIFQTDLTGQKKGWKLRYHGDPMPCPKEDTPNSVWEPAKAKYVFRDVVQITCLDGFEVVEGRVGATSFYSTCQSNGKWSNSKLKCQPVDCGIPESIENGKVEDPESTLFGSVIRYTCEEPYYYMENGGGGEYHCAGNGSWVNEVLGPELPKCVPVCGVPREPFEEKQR
Assay: Human C1s Enzyme Assay
Format: biochemical
Conditions: C1s purified from human serum, 1.16 nM, substrate Z-L-Lys-SBzl, read-out: C1s Protease Activity
Procedure: Example 4. Human C1s Enzyme Assay
Human complement C1s enzyme (purified from human serum, Complement Technology, Inc.) at 1.16 nM final concentration is incubated with test compound at various concentrations for 5 min at room temperature in 50 mM Tris, 1 M NaCl, pH 7.5. A synthetic substrate Z-L-Lys-SBzl and DTNB (Ellman's reagent) are added to final concentrations of 100 μM each. Absorbance at 405 nm (A405) is recorded at 30 second intervals for 30 min using a microplate spectrophotometer. IC50 values are calculated by nonlinear regression of complement C1s reaction rates as a function of test compound concentration.

Compound | IC50 (Table 2) [nM] | IC50 (Table 1) [nM] | further results
N=C(N)CCCCNC(=O)[C@@H]1CCCN1C(=O)CNC(=O)c1ccc(Oc2ccccc2)cc1 [Compound 29, (S)-N-(5-amino-5-iminopentyl)-1-((4-phenoxybenzoyl)glycyl)pyrrolidine-2-carboxamide] |  | > 1000 | 
CCCCCOc1ccc(C(=O)NCC(=O)N2CCC[C@H]2C(=O)NCc2cc(C(=N)N)cs2)cc1 [Compound 79, (S)-N-((4-carbamimidoylthiophen-2-yl)methyl)-1-((4-(pentyloxy)benzoyl)glycyl)pyrrolidine-2-carboxamide] | < 100 |  | 
Cc1cccc(O[C@H]2C[C@@H](C(=O)NCc3cc(C(=N)N)cs3)N(C(=O)CNC(=O)c3ccc(Oc4ccccc4)cc3)C2)c1 [Compound 104, (2S,4S)-N-((4-carbamimidoylthiophen-2-yl)methyl)-1-((4-phenoxybenzoyl)glycyl)-4-(m-tolyloxy)pyrrolidine-2-carboxamide] |  |  | IC50 (Table 3): < 100 nM
NCCCCCCNC(=O)[C@@H]1CC2(CN1C(=O)CNC(=O)c1ccc(Oc3ccccc3)cc1)OCCO2 [Compound 27, (8S)—N-(6-Aminohexyl)-7-{2-[(4-phenoxyphenyl)formamido]acetyl}-1,4-dioxa-7-azaspiro[4.4]nonane-8-carboxamide] |  | > 1000 | 
N=C(N)CCCCNC(=O)[C@@H]1CC2(CN1C(=O)CNC(=O)c1ccc(Oc3ccccc3)cc1)OCCO2 [Compound 17, (8S)—N-(4-Carbamimidoylbutyl)-7-{2-[(4-phenoxyphenyl)formamido]acetyl}-1,4-dioxa-7-azaspiro[4.4]nonane-8-carboxamide] |  | > 1000 | 
CO[C@H]1C[C@H](C(=O)CNC(=O)c2ccc(Oc3ccccc3)cc2)[C@H](C(=O)NCc2cc(C(=N)N)cs2)C1 [Compound 34, N-(2-((1S,2R,4S)-2-(((4-carbamimidoylthiophen-2-yl)methyl)carbamoyl)-4-methoxycyclopentyl)-2-oxoethyl)-4-phenoxybenzamide] |  | > 1000 | 
CC(N)c1csc(CNC(=O)[C@@H]2CCCN2C(=O)CNC(=O)c2ccc(Oc3ccccc3)cc2)c1 (stereo partly drawn) [Compound 60, (2S)-N-((4-(1-aminoethyl)thiophen-2-yl)methyl)-1-((4-phenoxybenzoyl)glycyl)pyrrolidine-2-carboxamide] | > 1000 |  | 
CO[C@H]1C[C@@H](C(=O)NCc2cc(C(=N)N)cs2)N(C(=O)CNC(=O)c2ccc(Oc3ccccc3)cc2)C1 [Compound 33, (2S,4S)—N-[(4-carbamimidoylthiophen-2-yl)methyl]-4-methoxy-1-{2-[(4-phenoxyphenyl)formamido]acetyl}pyrrolidine-2-carboxamide] |  | < 100 | 
C[C@H](OCc1ccccc1)[C@H](OCc1ccccc1)[C@@H](OCc1ccccc1)[C@H](CN(CC(=O)N1CC2(C[C@H]1C(=O)NCc1cc(C(=N)N)cs1)OCCO2)C(=O)OCc1ccccc1)OCc1ccccc1 [Compound 87, benzyl (2-((S)-8-(((4-carbamimidoylthiophen-2-yl)methyl)carbamoyl)-1,4-dioxa-7-azaspiro[4.4]nonan-7-yl)-2-oxoethyl)((2S,3S,4S,5S)-2,3,4,5-tetrakis(benzyloxy)hexyl)carbamate] | > 1000 |  | 
N=C(N)c1csc(CNC(=O)[C@@H]2CCCN2C(=O)CCCc2ccc(Oc3ccccc3)cc2)c1 [Compound 53, (S)-N-((4-carbamimidoylthiophen-2-yl)methyl)-1-(4-(4-phenoxyphenyl)butanoyl)pyrrolidine-2-carboxamide] | < 100 |  | 
N=C(N)c1csc(CNC(=O)[C@@H]2CCCN2C(=O)NNC(=O)c2ccc(Oc3ccccc3)cc2)c1 [Compound 59, (S)-N-((4-carbamimidoylthiophen-2-yl)methyl)-1-(2-(4-phenoxybenzoyl)hydrazine-1-carbonyl)pyrrolidine-2-carboxamide] | 100 to 1000 |  | 
N=C(N)c1csc(CNC(=O)[C@@H]2CCCN2C(=O)NNC(=O)c2ccc(Oc3ccccc3)cc2)c1 [Compound 36, (S)-N-((4-carbamimidoylthiophen-2-yl)methyl)-1-(2-(4-phenoxybenzoyl)hydrazine-1-carbonyl)pyrrolidine-2-carboxamide] |  | 100 to 1000 | 

Continued, in another order:

IC50 (Table 2) [nM] | IC50 (Table 1) [nM] | Compound | further results
< 100 |  | Cc1cc(C(=O)NCC(=O)N2CC3(C[C@H]2C(=O)NCc2nc(C(=N)N)cs2)OCCO3)ccc1Oc1ccccc1 [Compound 49, (S)-N-((4-carbamimidoylthiazol-2-yl)methyl)-7-((3-methyl-4-phenoxybenzoyl)glycyl)-1,4-dioxa-7-azaspiro[4.4]nonane-8-carboxamide] | 
 | 100 to 1000 | N=C(N)c1csc(CNC(=O)[C@@H]2CN2C(=O)CNC(=O)c2ccc(Oc3ccccc3)cc2)c1 [Compound 14, (2S)—N-[(4-Carbamimidoylthiophen-2-yl)methyl]-1-{2-[(4-phenoxyphenyl)formamido]acetyl}aziridine-2-carboxamide] | 
< 100 |  | N=C(N)c1csc(CNC(=O)[C@@H]2CCCN2C(=O)CNC(=O)CCCCc2ccccc2)c1 [Compound 80, (S)-N-((4-carbamimidoylthiophen-2-yl)methyl)-1-((5-phenylpentanoyl)glycyl)pyrrolidine-2-carboxamide] | 
 | < 100 | N=C(N)c1csc(CNC(=O)C2N(C(=O)CNC(=O)c3ccc(Oc4ccccc4)cc3)CC23CCC3)c1 (centres unmarked) [Compound 7, N-[(4-Carbamimidoylthiophen-2-yl)methyl]-2-{2-[(4-phenoxyphenyl)formamido]acetyl}-2-azaspiro[3.3]heptane-1-carboxamide] | 
< 100 |  | N=C(N)c1csc(CNC(=O)[C@@H]2CCCN2C(=O)CNC(=O)c2ccc(Cc3ccccc3)cc2)c1 [Compound 56, (S)-1-((4-benzylbenzoyl)glycyl)-N-((4-carbamimidoylthiophen-2-yl)methyl)pyrrolidine-2-carboxamide] | 
 | > 1000 | N=C(N)CCCNC(=O)[C@@H]1CC2(CN1C(=O)CNC(=O)c1ccc(Oc3ccccc3)cc1)OCCO2 [Compound 16, (8S)—N-(3-Carbamimidoylpropyl)-7-{2-[(4-phenoxyphenyl)formamido]acetyl}-1,4-dioxa-7-azaspiro[4.4]nonane-8-carboxamide] | 
< 100 |  | N=C(N)c1csc(CNC(=O)[C@@H]2CCCN2C(=O)CNC(=O)CCCCOc2ccccc2)c1 [Compound 68, (S)-N-((4-carbamimidoylthiophen-2-yl)methyl)-1-((5-phenoxypentanoyl)glycyl)pyrrolidine-2-carboxamide] | 
< 100 |  | CCCCCCCC(=O)NCC(=O)N1CCC[C@H]1C(=O)NCc1cc(C(=N)N)cs1 [Compound 84, (S)-N-((4-carbamimidoylthiophen-2-yl)methyl)-1-(octanoylglycyl)pyrrolidine-2-carboxamide] | 
 | < 100 | Cc1ccc(Oc2ccc(C(=O)NCC(=O)N3CC4(C[C@H]3C(=O)NCc3cc(C(=N)N)cs3)OCCO4)cc2)cc1 [Compound 1, (8S)—N-[(4-carbamimidoylthiophen-2-yl)methyl]-7-(2-{[4-(4-methylphenoxy)phenyl]formamido}acetyl)-1,4-dioxa-7-azaspiro[4.4]nonane-8-carboxamide] | 
> 1000 |  | N=C(N)c1csc(CNC(=O)[C@@H]2CCCN2CCCCc2ccc(Oc3ccccc3)cc2)c1 [Compound 37, (S)-N-((4-carbamimidoylthiophen-2-yl)methyl)-1-(4-(4-phenoxyphenyl)butyl)pyrrolidine-2-carboxamide] | 
> 1000 |  | CO[C@@H]1C[C@H](C(=O)NCc2cc(C(=N)N)cs2)[C@H](C(=O)CNC(=O)c2ccc(Oc3ccccc3)cc2)C1 [Compound 61, N-(2-((1R,2S,4S)-2-(((4-carbamimidoylthiophen-2-yl)methyl)carbamoyl)-4-methoxycyclopentyl)-2-oxoethyl)-4-phenoxybenzamide] | 
< 100 |  | N=C(N)c1csc(CNC(=O)[C@@H]2CCCN2C(=O)CNC(=O)CCCOc2ccccc2)c1 [Compound 67, (S)-N-((4-carbamimidoylthiophen-2-yl)methyl)-1-((4-phenoxybutanoyl)glycyl)pyrrolidine-2-carboxamide] | 
> 1000 |  | NCc1csc(CNC(=O)[C@@H]2CCCN2C(=O)CNC(=O)c2ccc(Oc3ccccc3)cc2)c1 [Compound 55, (S)-N-((4-(aminomethyl)thiophen-2-yl)methyl)-1-((4-phenoxybenzoyl)glycyl)pyrrolidine-2-carboxamide] | 
 | > 1000 | N=C(N)NCCC[C@H](NC(=O)[C@@H]1CC2(CN1C(=O)CNC(=O)c1ccc(Oc3ccccc3)cc1)OCCO2)C(N)=O [Compound 22, N-{2-[(8S)-8-{[(1S)-4-Carbamimidamido-1-carbamoylbutyl]carbamoyl}-1,4-dioxa-7-azaspiro[4.4]nonan-7-yl]-2-oxoethyl}-4-phenoxybenzamide] | 
